For series [1], the target named is T1, RXFP1 (Homo sapiens, UniProt Q9HBX9).
T1 construct: OVCAR5 cells expressing endogenous RXFP1; endogenous in cells; host or cells: OVCAR5 cells
T1 sequence (Q9HBX9 1-757): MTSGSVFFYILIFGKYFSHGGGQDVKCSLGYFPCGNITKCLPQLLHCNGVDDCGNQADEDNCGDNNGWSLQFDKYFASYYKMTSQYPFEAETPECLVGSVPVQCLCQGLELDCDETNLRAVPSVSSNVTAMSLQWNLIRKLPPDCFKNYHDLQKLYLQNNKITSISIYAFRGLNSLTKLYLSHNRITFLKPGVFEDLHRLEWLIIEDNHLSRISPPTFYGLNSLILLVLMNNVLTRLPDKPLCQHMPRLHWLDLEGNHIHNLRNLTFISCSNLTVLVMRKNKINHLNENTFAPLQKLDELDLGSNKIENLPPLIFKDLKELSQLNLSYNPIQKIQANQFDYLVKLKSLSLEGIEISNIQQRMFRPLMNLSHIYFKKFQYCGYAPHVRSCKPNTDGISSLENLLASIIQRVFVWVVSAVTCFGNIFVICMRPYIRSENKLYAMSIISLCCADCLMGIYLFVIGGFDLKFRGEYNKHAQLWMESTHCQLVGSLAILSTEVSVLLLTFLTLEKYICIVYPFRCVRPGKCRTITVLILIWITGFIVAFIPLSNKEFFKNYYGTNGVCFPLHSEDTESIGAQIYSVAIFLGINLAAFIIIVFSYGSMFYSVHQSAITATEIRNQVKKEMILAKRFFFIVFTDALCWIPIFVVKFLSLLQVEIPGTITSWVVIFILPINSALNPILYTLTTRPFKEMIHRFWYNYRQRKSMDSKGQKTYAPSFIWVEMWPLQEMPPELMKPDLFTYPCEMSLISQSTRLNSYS
Description: OVCAR5 cAMP assay (HTRF), RXFP1 agonist activity. Type of series: cell-based. As to conditions: for EC50: OVCAR5 cells, cAMP HTRF, read-out: EC50 (nM), OVCAR 5 cells (cAMP); for Emax: OVCAR-5, maximal cAMP relative to H2-relaxin maximum (100%), read-out: EMax, OVCAR 5 cells (cAMP). In a few lines:
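OVCAR5 cells (endogenous RXFP1) pretreated 40 min at 37° C with 1 mM IBMX, then exposed to peptides in serum-free medium for 30 min at 37° C. Lysate cAMP read by HTRF; EC50 from variable-slope sigmoidal fit; Emax as % of H2-relaxin maximal cAMP in same run.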

Series [2] can be described thus: Pharmacokinetic (PK) determination after i.v. or s.c. administration to rats. Type of series: in vivo, Sprague Dawley rats. The conditions noted are these: Sprague Dawley, Rat PK; for C0 / half-life: iv, 1 mg/kg i.v.; for C0: extrapolated plasma concentration at t=0, read-out: C0; for half-life / Cmax / Tmax / bioavailability: plasma; for half-life: read-out: T½ (converted); for Cmax / Tmax: sc, 3 mg/kg s.c.; for bioavailability: subcutaneous, 3 mg/kg s.c. vs 1 mg/kg i.v., dose-corrected AUC ratio. On the procedure: Prior to the testing of a peptide batch, its purity (HPLC-UV) was determined. Dose was corrected for presence of salts, solvent and purity.
Sprague Dawley rats were dosed with study peptide at a dose of 1 mg/kg intravenously (i.v.) or 3 mg/kg subcutaneously (s.c.) as a solution in PBS (0.2 mg/ml and 0.6 mg/ml respectively).
Plasma samples were analyzed after protein precipitation via liquid chromatography mass spectrometry (LC/MS).
PK parameters and half-life were calculated using Phoenix 64 (WinNonlin 6.4)-Pharsight (Certara™) (non-compartment model). Values below the limit of quantification (BLQ) were replaced by zero for subsequent calculations and PK analysis.
T½: in-vivo half life, time required for test compound plasma concentration to be divided by two during the PK experiment.
C0: Extrapolated test compound plasma concentration at t=0 time point (i.v. route).
Cmax: maximal test compound plasma concentration at the indicated time point (s.c. route).
Tmax: Time point where Cmax is attained.
F %: s.c. vs i.v. bioavailability, dose-corrected area under curve (AUC) s.c. route divided by AUC i.v.

*1 amine or outer side, *2 acyl side, *3 side chain or, on linkers, in order; H or OH if unused. Where a SMILES comes first, the peptide text is derived from it. Side-chain parts run from the residue outwards. [ ]: non-standard residue; d: D form. The star is where a group is joined. X6 = CCCCCCCCCCCCCCC(=O)N[C@@H](CCC(=O)N[C@@H](CCC(=O)NCCCC[C@H](NC(=O)CC[C@H](NC(=O)CC[C@H](NC(=O)CCC(=O)NCCCOCCOCCOCCCNC(=O)CCC(=O)NCCCOCCOCCOCCCNC(=O)CCC(=O)NCCCOCCOCCOCCCN*)C(=O)O)C(=O)O)C(N)=O)C(=O)O)C(=O)O; PEG12 = NCCOCCOCCOCCOCCOCCOCCOCCOCCOCCOCCOCCOCCC(=O)O; γGlu = O=C(O)[C@H](CCC(=O)[*:2])N[*:1]; Stearoyl = CCCCCCCCCCCCCCCCCC(=O)*; Palmitoyl = CCCCCCCCCCCCCCCC(=O)*; αMeK = C[C@](N)(CCCCN)C(=O)O; Nle = CCCC[C@H](N)C(=O)O; AEEA = NCCOCCOCC(=O)O; Aib = CC(C)(N)C(=O)O

Consider `CCCCCCCCCCCCCCCC(=O)N[C@@H](CCC(=O)N[C@@H](CCC(=O)N[C@@H](CCC(=O)N[C@@H](CCC(=O)NCCCC[C@H](NC(=O)COCCOCCNC(=O)COCCOCCNC(=O)COCCOCCNC(=O)COCCOCCNC(=O)[C@H](CCCCNC(C)=O)NC(=O)[C@H](CCCCN)NC(=O)[C@H](CCCNC(=N)N)NC(=O)[C@](C)(CCCCN)NC(=O)[C@H](CO)NC(=O)[C@H](Cc1c[nH]c2ccccc12)NC(=O)[C@@H](NC(=O)[C@H](CO)NC(=O)[C@H](CCCC)NC(=O)CNC(=O)[C@H](CCC(=O)O)NC(=O)C(C)(C)NC(=O)C(C)(C)NC(=O)[C@@H](NC(=O)[C@H](CCCCNC(C)=O)NC(=O)[C@H](C)NC(=O)[C@H](CCCNC(=N)N)NC(=O)[C@@H](NC(=O)[C@H](CCCCN)NC(=O)[C@H](CCC(=O)O)NC(=O)[C@H](CCCNC(=N)N)NC(=O)CNC(=O)[C@H](CCC(=O)O)NC(=O)[C@H](CC(C)C)NC(C)=O)C(C)C)[C@@H](C)CC)[C@@H](C)O)C(N)=O)C(=O)O)C(=O)O)C(=O)O)C(=O)O` [compound 131] (Ac-LEGREKVRAK(Ac)I[Aib][Aib]EG[Nle]STWS[αMeK]RKK(Ac)[AEEA][AEEA][AEEA][AEEA]K([γGlu-γGlu-γGlu-γGlu-Palmitoyl])-NH2), for which, in series [1], the 50% effective concentration (EC50) turned out to be 0.26 nM and the Emax was 92%. In series [2], the C0 was 2500 nM, the half-life was 6.3 h, the highest level (Cmax) was 1390 nM and the Tmax turned out to be 8 h. Further, the bioavailability in series [2] turned out to be 82%.

On to `CCCCCCCCCCCCCCCCCC(=O)N[C@@H](CCC(=O)N[C@@H](CCC(=O)N[C@@H](CCC(=O)N[C@@H](CCC(=O)NCCOCCOCC(=O)NCCOCCOCC(=O)NCCOCCOCC(=O)NCCOCCOCC(=O)NCCCC[C@H](NC(=O)[C@H](CCCCN)NC(=O)[C@H](CCCCN)NC(=O)[C@H](CCCNC(=N)N)NC(=O)C(C)(C)NC(=O)[C@H](CO)NC(=O)[C@H](Cc1c[nH]c2ccccc12)NC(=O)[C@@H](NC(=O)[C@H](CO)NC(=O)[C@H](CCCC)NC(=O)CNC(=O)[C@H](CCC(=O)O)NC(=O)C(C)(C)NC(=O)C(C)(C)NC(=O)[C@@H](NC(=O)[C@H](CCCCNC(C)=O)NC(=O)[C@H](C)NC(=O)[C@H](CCCNC(=N)N)NC(=O)[C@@H](NC(=O)[C@H](CCCCN)NC(=O)[C@H](CCC(=O)O)NC(=O)[C@H](CCCNC(=N)N)NC(=O)CNC(=O)[C@H](CCC(=O)O)NC(=O)[C@H](CC(C)C)NC(C)=O)C(C)C)[C@@H](C)CC)[C@@H](C)O)C(N)=O)C(=O)O)C(=O)O)C(=O)O)C(=O)O` [compound 91] (Ac-LEGREKVRAK(Ac)I[Aib][Aib]EG[Nle]STWS[Aib]RKKK([AEEA-AEEA-AEEA-AEEA-γGlu-γGlu-γGlu-γGlu-Stearoyl])-NH2), for which, in series [1], the Emax is 88%. Also, in series [2], the C0 is 2900 nM, the half-life is 3 h, the peak level (Cmax) was 1300 nM and the Tmax amounted to 7 h. Further, the bioavailability in series [2] is 89%.

For the compound `CCCCCCCCCCCCCCCCCC(=O)N[C@@H](CCC(=O)NCCOCCOCC(=O)N[C@@H](CCC(=O)N[C@@H](CCC(=O)NCCOCCOCC(=O)NCCOCCOCC(=O)NCCCC[C@H](NC(=O)[C@H](CCCCNC(C)=O)NC(=O)[C@H](CCCCN)NC(=O)[C@H](CCCNC(=N)N)NC(=O)C(C)(C)NC(=O)[C@H](CO)NC(=O)[C@H](Cc1c[nH]c2ccccc12)NC(=O)[C@@H](NC(=O)[C@H](CO)NC(=O)[C@H](CCCC)NC(=O)CNC(=O)[C@H](CCC(=O)O)NC(=O)C(C)(C)NC(=O)C(C)(C)NC(=O)[C@@H](NC(=O)[C@H](CCCCNC(C)=O)NC(=O)[C@H](C)NC(=O)[C@H](CCCNC(=N)N)NC(=O)[C@@H](NC(=O)[C@H](CCCCN)NC(=O)[C@H](CCC(=O)O)NC(=O)[C@H](CCCNC(=N)N)NC(=O)CNC(=O)[C@H](CCC(=O)O)NC(=O)[C@H](CC(C)C)NC(C)=O)C(C)C)[C@@H](C)CC)[C@@H](C)O)C(N)=O)C(=O)O)C(=O)O)C(=O)O` [compound 101] (Ac-LEGREKVRAK(Ac)I[Aib][Aib]EG[Nle]STWS[Aib]RKK(Ac)K([AEEA-AEEA-γGlu-γGlu-AEEA-γGlu-Stearoyl])-NH2), in series [1], the EC50 was 0.16 nM and the Emax was found to be 86%. In addition, in series [2], the C0 was 1800 nM, the half-life was 1.8 h, the peak level (Cmax) was 1000 nM and the Tmax amounted to 7 h. In series [2], the bioavailability was 39%.

With `CCCCCCCCCCCCCCC(=O)N[C@@H](CCC(=O)N[C@@H](CCC(=O)NCCCC[C@H](NC(=O)CC[C@H](NC(=O)CC[C@H](NC(=O)CCC(=O)NCCCOCCOCCOCCCNC(=O)CCC(=O)NCCCOCCOCCOCCCNC(=O)CCC(=O)NCCCOCCOCCOCCCNC(=O)[C@H](CCCCNC(C)=O)NC(=O)[C@H](C)NC(=O)[C@H](CCCNC(=N)N)NC(=O)[C@](C)(CCCCN)NC(=O)[C@H](CO)NC(=O)[C@H](Cc1ccccc1)NC(=O)[C@@H](NC(=O)[C@H](CO)NC(=O)[C@H](CCC(N)=O)NC(=O)CNC(=O)[C@H](CCC(=O)O)NC(=O)C(C)(C)NC(=O)C(C)(C)NC(=O)[C@@H](NC(=O)[C@H](CCCCNC(C)=O)NC(=O)[C@H](C)NC(=O)[C@H](CCCNC(=N)N)NC(=O)[C@@H](NC(=O)[C@H](CCCCN)NC(=O)[C@H](CCC(=O)O)NC(=O)[C@H](CCCNC(=N)N)NC(=O)CNC(=O)[C@H](CCC(=O)O)NC(=O)[C@H](CC(C)C)NC(C)=O)C(C)C)[C@@H](C)CC)[C@@H](C)O)C(=O)O)C(=O)O)C(N)=O)C(=O)O)C(=O)O` [compound 184] (Ac-LEGREKVRAK(Ac)I[Aib][Aib]EGQSTFS[αMeK]RAK(Ac)-X6), in series [1], the Emax was 100%. Besides, in series [2], the C0 is 4700 nM, the half-life was 7.3 h, the peak concentration (Cmax) stood at 2800 nM and the Tmax was found to be 7 h. For the same compound, the bioavailability in series [2] is 71%.

In the case of `CCCCCCCCCCCCCCCCCC(=O)N[C@@H](CCC(=O)N[C@@H](CCC(=O)N[C@@H](CCC(=O)N[C@@H](CCC(=O)NCCCC[C@H](NC(=O)CCOCCOCCOCCOCCOCCOCCOCCOCCOCCOCCOCCOCCNC(=O)[C@H](CCCCNC(C)=O)NC(=O)[C@H](CCCCN)NC(=O)[C@H](CCCNC(=N)N)NC(=O)[C@](C)(CCCCN)NC(=O)[C@H](CO)NC(=O)[C@H](Cc1c[nH]c2ccccc12)NC(=O)[C@@H](NC(=O)[C@H](CO)NC(=O)[C@H](CCCC)NC(=O)CNC(=O)[C@H](CCC(=O)O)NC(=O)C(C)(C)NC(=O)C(C)(C)NC(=O)[C@@H](NC(=O)[C@H](CCCCNC(C)=O)NC(=O)[C@H](C)NC(=O)[C@H](CCCNC(=N)N)NC(=O)[C@@H](NC(=O)[C@H](CCCCN)NC(=O)[C@H](CCC(=O)O)NC(=O)[C@H](CCCNC(=N)N)NC(=O)CNC(=O)[C@H](CCC(=O)O)NC(=O)[C@H](CC(C)C)NC(C)=O)C(C)C)[C@@H](C)CC)[C@@H](C)O)C(N)=O)C(=O)O)C(=O)O)C(=O)O)C(=O)O` [compound 42] (Ac-LEGREKVRAK(Ac)I[Aib][Aib]EG[Nle]STWS[αMeK]RKK(Ac)[PEG12]K([γGlu-γGlu-γGlu-γGlu-Stearoyl])-NH2), in series [1], the EC50 amounted to 0.01 nM and the Emax came to 91%. Besides, in series [2], the C0 is 3000 nM, the half-life was 3.7 h, the highest level (Cmax) was 2000 nM and the Tmax is 5 h. Moreover, the bioavailability in series [2] amounted to 65%.
